Read-outs that look alike come from different tables or passages of the source.

As a reminder, the solubility is the dissolved amount per volume that the medium holds.

One data set can be described thus: Solubility. The note with it: for Solubility in solvents: organic solvents, water; for solubility: read-out: Solubility: amount dissolved in 1.0 mL. Format: physicochemical.
The nature of another data set: Stability. The class given is physicochemical. On the procedure:
The compound should be kept at -20° C. under Argon.

The subject of the next data set is rat brain. Nature of the data set: Infarct volume after MCA occlusion of rat brain (triphenyltetrazolium chloride staining). The class given is in vivo. The note with it: 50 mg/kg i.p. at three hours after initiation of the stroke event; n=5. On the procedure: Two sets of experiments were carried out. In the first set, rats were administered with 50 mg/kg of DHA-choline i.p. at 30 minutes prior to occlusion of the middle cerebral artery of the left side of the brain using a standard highly reproducible animal model of stroke (Karpiak et al., J. Neurosci Res.30:512-520, 1991). Occlusion of the middle cerebral artery inhibits blood flow to a major portion of the left cortical and subcortical regions of the brain. After a two hour period, the occluded blood vessel was opened to allow reperfusion of the brain, and anesthesia was terminated. Each animal received additional doses of 50 mg/kg of DHA-choline 24 and 48 hours later.
The animals were sacrificed, perfused with formalin fixative, brains were sliced into seven 2 mm thick coronal sections, and stained with triphenyltetrazolium chloride (Watson et al., J. Neurosci. Methods 53:203-208, 1994). In this test, tissue that contains intact mitochondria stains red, whereas dead tissue with damaged mitochondria picks up no stain and remains white. Each unstained area on the left side of a section was measured and compared to the total area of the control non-occluded right side of the same section of the brain. The area of damaged (white) brain tissue cells was calculated as a percent of the intact right side of a section. […] (n=5 per group.) […]

In data set [1] the test system is locomotor activity of mice. Nature of the data set: Locomotor activity study (dose-response of DHA-choline-induced locomotor depression). The class given is in vivo, male Swiss-Webster mice (Hsd:ND4). The note with it: 20 min pretreatment. On the procedure:
A dose-response study of DHA-choline-induced locomotor depression was conducted using 40 Digiscan locomotor activity testing chambers (40.5×40.5×30.5 cm) housed in sets of two, within sound attenuating chambers. A panel of infrared beams (16 beams) and corresponding photo detectors were located in the horizontal direction along the sides of each activity chamber. A 7.5W incandescent light above each chamber provided dim illumination. Fans provided an 80-dB ambient noise level within the chamber. Separate groups of 8 non-habituated male Swiss-Webster mice (Hsd:ND4, aged 2-3 mo.) were injected via the intraperitoneal route (i.p.) with either vehicle or DHA-choline (0.5, 2.5, 5, 10, 20 or 40 mg/kg), 20 minutes prior to locomotor activity testing. In all studies, the total distance (cm traversed in the horizontal plane) was measured for 2 hours within 10 min periods.
The figures show the dose response data for the locomotor activity (Stewart et al., Psychopharmacol 60:281, 1979) of mice injected with different doses of the compound. The figures show average distance per 10 min as a function of time (FIG. 1) and dose (FIG. 2) 20 minutes following DHA-choline pretreatment. The period 0-30 min was selected for analysis of dose-response data because this is the time period in which DHA-choline produced maximal effects. […]

The conditions of data set [2]: animal models, clinical trials; cited from earlier work.
For data set [3] the following is noted: models of aging; cited from earlier work.
The conditions of data set [4]: cited from earlier work.

For `CC/C=C\C/C=C\C/C=C\C/C=C\C/C=C\C/C=C\CCC(=O)OCCN(C)C` [2-dimethylaminoethyl docosahexaenoate], the Solubility in solvents result in the data set “Solubility” is on record as “soluble in EtOAc, Et2 O, CH2 C2, CHCl3, EtOH insoluble in H2 O”. Further, the “Stability in air (appearance)” value in the data set “Stability” (exposed in the air for several days) is on record as “turns dark when exposed in the air for several days”.

Consider `CC/C=C\C/C=C\C/C=C\C/C=C\C/C=C\C/C=C\CCC(=O)OCC[N+](C)(C)C` [DHA-choline, Docosahexaenoyl Choline Iodide], for which the “infarct volume relative to vehicle controls” value with rat brain is recorded as “approximately 50%”. The solubility was 5500 µg/mL in “Solubility” (1.0 mL ascorbic acid in saline with 0.02 mL detergent) and 7800 µg/mL in “Solubility” (10% albumin saline with detergent, 1.0 mL 10% albumin in saline with 0.01 mL detergent). In the data set “Solubility”, the Solubility in solvents entry was “soluble in CH2 Cl2, CHCl3, EtOAc, EtOH insoluble in hexanes, Et2 O”. Also, the “Stability in air (1H NMR analysis)” value in “Stability” (exposed in the air for 5 days) is listed as “had not decomposed”. In the data set “Stability” (exposed in the air for too long), the “Stability on long exposure to air” value is “will decompose”. Also, the ED50 in data set [1] (Mus musculus, ip, 0-30 min period, maximal depressant activity = 0 cm/30 min, read-out: ID50 dose producing 1/2 maximal depressant activity (locomotor activity)) stood at 12.9 mg/kg. The “time period of maximal effects” value in data set [1] (i.p.) was in the range of 0 to 30 min.

Consider `C[N+](C)(C)CCOP(=O)(O)OP(=O)([O-])OC[C@H]1O[C@@H](n2ccc(N)nc2=O)[C@H](O)[C@@H]1O` [CDP-choline, Cytidine 5'-diphosphocholine], for which the neuroprotective effect result in data set [2] is “neuroprotective effect”. Further, the “effect on memory and learning deficits” value in data set [3] is “improves memory and learning deficits”.

As for `CC/C=C\C/C=C\C/C=C\C/C=C\C/C=C\C/C=C\CCC(=O)O` [DHA, cis-docosahexaenoic acid], the “stability in the presence of oxygen” value in data set [4] is on record as “can be unstable in the presence of oxygen”.

The values are drawn from US5977174A, “Cholinergic compositions and uses thereof” (Neuromedica, Inc., priority 1997, dated 1999).
